The values below come from patent publication US10815276B2, “Cell penetrating peptides and methods of making and using thereof” (Entrada Therapeutics, Inc., priority 2014, dated 2020).

The target of data set [1] is T1, PTP1B (Homo sapiens, UniProt P18031).
T1 construct: The gene coding for the catalytic domain of PTP1B (amino acids 1-321) was amplified; made in house; host or cells: prokaryotic vector pET-22b(+)-ybbR
Put plainly: PTP inhibition assay (pNPP). The settings on record: monocyclic peptide inhibitors. The format is biochemical. As for the experimental part: (§1) PTP assays were performed in a quartz microcuvette (total volume 150 μL). The reaction mixture contains 100 mM Tris-HCl, pH 7.4, 50 mM NaCl, 2 mM EDTA, 1 mM TCEP, 0-1 μM of PTP inhibitor, and 500 μM para-nitrophenyl phosphate (pNPP). The enzymatic reaction was initiated by the addition of PTP (final concentration 15-75 nM) and monitored continuously at 405 nm on a UV-VIS spectrophotometer. Initial rates were calculated from the reaction progress curves (typically <60 s). The half-maximal inhibition constant (IC50) was defined as the concentration of an inhibitor that reduced the enzyme activity to 50% and was obtained by plotting the rates (V) against the inhibitor concentration [I] and fitting the data against the equation
[formula] where V0 is the enzymatic reaction rate in the absence of inhibitor. […] The reaction rate (V) was plotted against the pNPP concentration ([S]) and fitted against the equation
[formula] to obtain the Michaelis constant K. The Ki value was obtained by plotting the K values against the inhibitor concentration [I] and fitted to equation
[formula] where K0 is the Michaelis constant in the absence of inhibitor ([I]=0).

The test system of data set [2] is A549 lung cancer cells. Nature of the data set: Live-cell confocal microscopy of FITC-labeled PTP1B inhibitors. The conditions noted are these: 5 μM FITC-labeled inhibitor, 2 h. The format is cell-based, human. The procedure:
Approximately 5×10^4 A549 cells were seeded in 35-mm glass-bottomed microwell dish (MatTek) containing 1 mL of media and cultured for one day. A549 cells were gently washed with DPBS once and treated with the FITC-labeled PTP1B inhibitors (5 μM), dextran^Rho (1 mg mL^−1) in growth media for 2 h at 37° C. in the presence of 5% CO2. The peptide-containing media was removed and the cells were washed with DPBS three times and incubated for 10 min in 1 mL of DPBS containing 5 μM DRAQS. The cells were again washed with DPBS twice. Then the cells were imaged on a Visitech Infinity 3 Hawk 2D-array live cell imaging confocal microscope (with a 60× oil immersion lens) at 37° C. in the presence of 5% CO2. Live-cell confocal microscopic imaging of HEK293 cells after treatment with FITC-labeled Pin1 inhibitors were similarly conducted.

The test system of data set [3] is HeLa cells. Nature of the data set: Live-cell confocal microscopy of FITC-labeled peptides. The format is cell-based, human. The settings on record: 5 μM. As for the experimental part:
To detect peptide internalization, 1 mL of HeLa cell suspension (5×10^4 cells) was seeded in a 35 mm glass-bottomed microwell dish (MatTek) and cultured overnight. Cells were gently washed with DPBS twice and treated with FITC labeled peptides (5 μM) and dextran^Rho (0.5 mg mL^−1) in phenol-red free DMEM containing 1% serum at 37° C. for 1 h in the presence of 5% CO2. After removal of the medium, the cells were gently washed with DPBS twice and incubated with 5 μM DRAQS in DPBS for 10 min. The cells were again washed with DPBS twice and imaged on a Visitech Infinity 3 Hawk 2D-array live cell imaging confocal microscope. Images were captured under the same parameters and adjusted under the same setting using MetaMorph (Molecular Devices).

Data set [4] deals with CAL-PDZ domain (Homo sapiens, UniProt Q9HD26). Nature of the data set: Fluorescence anisotropy binding to CAL-PDZ. The conditions noted are these: absence of a reducing agent. As for the experimental part: The full fluorescence anisotropy (FA) titration experiment was performed by incubating 100 nM fluorophore-labeled peptidyl ligands with varying concentrations (0-6 μM) of CAL-PDZ (Cushing, P R et al. […] The FA values were measured on a Molecular Devices Spectramax M5 spectrofluorimeter, with excitation and emission wavelengths at 485 nm and 525 nm, respectively. Equilibrium dissociation constants (KD) were determined by plotting the fluorescence anisotropy values as a function of CAL-PDZ concentration. The titration curves were fitted to the following equation, which assumes a 1:1 binding stoichiometry
where Y is the measured anisotropy at a given CAL-PDZ concentration x; L is the bicyclic peptide concentration; Qb/Qf is the correction fact for dye-protein interaction; Amax is the maximum anisotropy when all the peptides are bound to CAP-PDZ, while Amin is the minimum anisotropy when all the peptides are free.
In general terms: Fluorescence polarisation rises when a labelled molecule tumbles more slowly, as on binding a larger partner.

Data set [5] concerns ΔF508-CFTR CFBE cells. Nature of the data set: SPQ intracellular chloride concentration assay. It is filed as cell-based. The conditions noted are these: 20 μM VX809 and 50 μM peptide 8. The procedure: A SPQ (6-Methoxy-N-(3-sulfopropyl)quinolinium) assay was utilized to estimate the transport activity of ΔF508-CFTR activity in CFBE cells, as the fluorescence of SPQ is negatively correlated with increasing concentration of intracellular chloride (Illsley, N P and Verkman, A S. Biochemistry 1987, 26, 1215). CFBE cells were grown on 96-well plate, which was pre-coated with 1 mg/ml human fibronectin, 3 mg/ml collagen I bovine, and 1 mg/ml bovine serum albumin, using DMEM media supplemented with L-glutamine and 10% FBS. […] Cells were then loaded with SPQ using hypotonic shock at 37° C. for 15 min with 10 mM SPQ containing 1:1 (v/v) Opti-MEM/water solution. The cells were then washed and incubated twice for 10 min with fluorescence quenching NaI buffer (130 mM NaI, 5 mM KNO3, 2.5 mM Ca(NO3)2, 2.5 mM Mg(NO3)2, 10 mM D-glucose, 10 mM N-(2-hydroxyethyl) piperazine-N′-(2-ethanesulfonic) acid (HEPES, pH 7.4)). […] Fluorescence non-specific to CFTR-mediated iodide efflux was measured by incubating the cells with the activation cocktail and the CFTR specific inhibitor GlyH101 (10 μM). The effects of CAL-PDZ inhibitors were evaluated by the fluorescence increasing rate above the basal level. The fluorescence of dequenched SPQ was measured using the plate reader VICTOR X3 (Perkin Elmer) with excitation wavelength at 350 nm and DAPI emission filter. […]

For data set [6], the system named is HeLa cells. Nature of the data set: MTT proliferation assay with Pin1 inhibitors. It is filed as cell-based, human. The conditions noted are these: MTT. As for the experimental part:
HeLa cells (100 μL/each well, 5×10^4 cells/mL) were seeded in a 96-well culture plate and allowed to grow overnight in DMEM supplemented with 10% FBS. […] After that, 10 μL of a MTT stock solution (5 mg/mL) was added into each well. The plate was incubated at 37° C. for 4 h and 100 μL of SDS-HCl solubilizing solution was added into each well, followed by thorough mixing. The plate was incubated at 37° C. overnight and the absorbance of the formazan product was measured at 570 nm on a Molecular Devices Spectramax M5 plate reader. Each experiment was performed in triplicates and the cells untreated with peptide were used as control.
A general note: Tetrazolium dyes change colour on reduction, which living cells bring about.

Data set [7] deals with Bronchial epithelial CFBE cells. Nature of the data set: Immunofluorescent staining of ΔF508-CFTR. The format is cell-based. The settings on record: 10 μM Corr-4a and 50 μM unlabeled peptide 8. As for the experimental part: After the treatments, cells were fixed in cold methanol for 20 min. The slides were then incubated in 1% BSA/PBS for 10 min, followed by incubation at 37° C. for 1 h with mouse anti-human monoclonal CFTR antibody (R&D Systems). Thereafter, the slides were incubated at 37° C. for 45 min with Alexa Fluor® 488-conjugated anti-mouse IgG2a secondary antibody. Cells were visualized on a Leica TCS SP2 AOBS confocal laser scanning microscope. All measurements were conducted in a double-blinded manner by two independent investigators.

For data set [8], the target named is SHP1 (Homo sapiens, UniProt P29350). Nature of the data set: PTP inhibition assay (pNPP). The format is biochemical. The settings on record: 1 μM inhibitor; read-out: Inhibition of SHP-1. As for the experimental part:
as §1

The target in data set [9] is PTPRC (Homo sapiens, UniProt P08575). Put plainly: PTP inhibition assay (pNPP). It is filed as biochemical. The settings on record: 1 μM inhibitor. The procedure:
as §1

The target of data set [10] is PTPRO (Homo sapiens, UniProt Q16827). Put plainly: PTP inhibition assay (pNPP). The conditions noted are these: 1 μM inhibitor. It is filed as biochemical. As for the experimental part:
as §1

The target of data set [11] is PTPH1 (Homo sapiens, UniProt P26045). Put plainly: PTP inhibition assay (pNPP). It is filed as biochemical. The settings on record: 1 μM inhibitor. As for the experimental part:
as §1

Data set [12] deals with HePTP (Homo sapiens, UniProt P35236). Put plainly: PTP inhibition assay (pNPP). It is filed as biochemical. The conditions noted are these: 1 μM inhibitor. The procedure: as §1
Data set [13] is described as follows: Serum stability test (human serum). It is filed as in vitro ADME. The settings on record: 25% human serum (supernatant after centrifugation), 24 h at 37° C., read-out: Degradation in human serum. The procedure: The stability tests were carried by modifying a previously reported procedure (Nguyen, L T et al. PLoS One 2010, 5, e12684). Diluted human serum (25%) was centrifuged at 15,000 rpm for 10 min, and the supernatant was collected. A peptide stock solution was diluted into the supernatant to a final concentration of 5 μM and incubated at 37° C. At various time points (0-24 h), 200-μL aliquots were withdrawn and mixed with 50 μL of 15% trichloroacetic acid and incubated at 4° C. overnight. The final mixture was centrifuged at 15,000 rpm for 10 min in a microcentrifuge, and the supernatant was analyzed by reversed-phase HPLC equipped with a C18 column. The amount of remaining peptide (%) was determined by integrating the area underneath the peptide peak (monitored at 214 nm) and comparing with that of the control reaction (no serum).

Starred links: 1 amine or outer side, 2 acyl side, 3 side chain; linkers in the order of their positions; H or OH if unused. Positions of bridges follow the written chain, without caps; N, C: chain ends. Non-standard residues stand in square brackets, D forms with d. Residues, ends and D or L forms follow the SMILES beside them. Trimesoyl = O=C(c1cc(C(=O)[*:2])cc(C(=O)[*:3])c1)[*:1]; F2Pmp = N[C@@H](Cc1ccc(C(F)(F)P(=O)(O)O)cc1)C(=O)O; 2Nal = N[C@@H](Cc1ccc2ccccc2c1)C(=O)O; Phg = N[C@H](C(=O)O)c1ccccc1; Pip = O=C(O)[C@@H]1CCCCN1; Dap = NC[C@H](N)C(=O)O

Sequence of SHP1 (P29350 whole entry): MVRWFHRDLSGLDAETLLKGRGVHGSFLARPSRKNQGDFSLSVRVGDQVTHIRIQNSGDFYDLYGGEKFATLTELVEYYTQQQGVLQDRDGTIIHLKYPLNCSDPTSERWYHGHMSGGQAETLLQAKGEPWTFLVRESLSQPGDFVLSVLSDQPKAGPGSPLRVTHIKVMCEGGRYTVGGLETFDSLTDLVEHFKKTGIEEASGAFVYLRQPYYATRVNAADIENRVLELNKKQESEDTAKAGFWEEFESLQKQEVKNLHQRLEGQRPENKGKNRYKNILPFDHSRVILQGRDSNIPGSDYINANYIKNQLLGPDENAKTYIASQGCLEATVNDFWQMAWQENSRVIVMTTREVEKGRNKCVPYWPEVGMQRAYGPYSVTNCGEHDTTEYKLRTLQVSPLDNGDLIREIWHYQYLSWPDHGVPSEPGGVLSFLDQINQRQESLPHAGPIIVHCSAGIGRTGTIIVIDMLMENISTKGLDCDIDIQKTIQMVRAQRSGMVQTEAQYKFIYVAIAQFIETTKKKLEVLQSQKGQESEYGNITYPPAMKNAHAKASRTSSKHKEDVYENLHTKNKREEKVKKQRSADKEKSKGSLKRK
Sequence of PTPRC (P08575 26-1306, species assumed): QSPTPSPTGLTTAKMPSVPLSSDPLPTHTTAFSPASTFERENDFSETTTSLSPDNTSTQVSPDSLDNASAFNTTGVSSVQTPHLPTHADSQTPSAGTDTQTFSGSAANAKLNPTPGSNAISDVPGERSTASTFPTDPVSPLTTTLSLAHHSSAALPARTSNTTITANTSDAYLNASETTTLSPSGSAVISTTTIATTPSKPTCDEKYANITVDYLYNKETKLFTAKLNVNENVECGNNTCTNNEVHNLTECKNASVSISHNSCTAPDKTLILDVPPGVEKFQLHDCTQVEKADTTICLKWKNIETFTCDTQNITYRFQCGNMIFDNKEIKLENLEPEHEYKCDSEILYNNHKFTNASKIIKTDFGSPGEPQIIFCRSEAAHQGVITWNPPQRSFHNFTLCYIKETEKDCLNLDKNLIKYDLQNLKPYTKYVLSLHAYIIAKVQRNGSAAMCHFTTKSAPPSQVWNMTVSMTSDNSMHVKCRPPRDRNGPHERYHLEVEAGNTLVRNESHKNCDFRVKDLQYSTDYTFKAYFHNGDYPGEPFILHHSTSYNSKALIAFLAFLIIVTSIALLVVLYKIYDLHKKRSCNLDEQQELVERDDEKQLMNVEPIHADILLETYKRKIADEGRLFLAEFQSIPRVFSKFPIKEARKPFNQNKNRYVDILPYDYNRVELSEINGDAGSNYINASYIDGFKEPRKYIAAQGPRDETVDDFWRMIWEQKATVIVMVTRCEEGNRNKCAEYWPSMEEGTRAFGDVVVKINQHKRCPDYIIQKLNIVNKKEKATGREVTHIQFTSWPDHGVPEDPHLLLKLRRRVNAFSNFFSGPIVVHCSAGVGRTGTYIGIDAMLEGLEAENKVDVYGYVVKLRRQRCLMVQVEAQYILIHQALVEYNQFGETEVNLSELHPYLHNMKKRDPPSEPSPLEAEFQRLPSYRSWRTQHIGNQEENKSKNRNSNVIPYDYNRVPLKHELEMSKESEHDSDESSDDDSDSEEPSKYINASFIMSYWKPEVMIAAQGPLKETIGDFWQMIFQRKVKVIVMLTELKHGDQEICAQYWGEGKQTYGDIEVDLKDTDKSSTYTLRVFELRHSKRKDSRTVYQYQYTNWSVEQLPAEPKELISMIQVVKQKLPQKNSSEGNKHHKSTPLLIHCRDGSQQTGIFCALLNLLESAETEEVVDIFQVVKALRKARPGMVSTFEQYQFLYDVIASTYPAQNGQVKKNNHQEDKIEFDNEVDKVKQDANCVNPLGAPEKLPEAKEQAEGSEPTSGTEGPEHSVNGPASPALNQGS
Sequence of PTPRO (Q16827 30-1216): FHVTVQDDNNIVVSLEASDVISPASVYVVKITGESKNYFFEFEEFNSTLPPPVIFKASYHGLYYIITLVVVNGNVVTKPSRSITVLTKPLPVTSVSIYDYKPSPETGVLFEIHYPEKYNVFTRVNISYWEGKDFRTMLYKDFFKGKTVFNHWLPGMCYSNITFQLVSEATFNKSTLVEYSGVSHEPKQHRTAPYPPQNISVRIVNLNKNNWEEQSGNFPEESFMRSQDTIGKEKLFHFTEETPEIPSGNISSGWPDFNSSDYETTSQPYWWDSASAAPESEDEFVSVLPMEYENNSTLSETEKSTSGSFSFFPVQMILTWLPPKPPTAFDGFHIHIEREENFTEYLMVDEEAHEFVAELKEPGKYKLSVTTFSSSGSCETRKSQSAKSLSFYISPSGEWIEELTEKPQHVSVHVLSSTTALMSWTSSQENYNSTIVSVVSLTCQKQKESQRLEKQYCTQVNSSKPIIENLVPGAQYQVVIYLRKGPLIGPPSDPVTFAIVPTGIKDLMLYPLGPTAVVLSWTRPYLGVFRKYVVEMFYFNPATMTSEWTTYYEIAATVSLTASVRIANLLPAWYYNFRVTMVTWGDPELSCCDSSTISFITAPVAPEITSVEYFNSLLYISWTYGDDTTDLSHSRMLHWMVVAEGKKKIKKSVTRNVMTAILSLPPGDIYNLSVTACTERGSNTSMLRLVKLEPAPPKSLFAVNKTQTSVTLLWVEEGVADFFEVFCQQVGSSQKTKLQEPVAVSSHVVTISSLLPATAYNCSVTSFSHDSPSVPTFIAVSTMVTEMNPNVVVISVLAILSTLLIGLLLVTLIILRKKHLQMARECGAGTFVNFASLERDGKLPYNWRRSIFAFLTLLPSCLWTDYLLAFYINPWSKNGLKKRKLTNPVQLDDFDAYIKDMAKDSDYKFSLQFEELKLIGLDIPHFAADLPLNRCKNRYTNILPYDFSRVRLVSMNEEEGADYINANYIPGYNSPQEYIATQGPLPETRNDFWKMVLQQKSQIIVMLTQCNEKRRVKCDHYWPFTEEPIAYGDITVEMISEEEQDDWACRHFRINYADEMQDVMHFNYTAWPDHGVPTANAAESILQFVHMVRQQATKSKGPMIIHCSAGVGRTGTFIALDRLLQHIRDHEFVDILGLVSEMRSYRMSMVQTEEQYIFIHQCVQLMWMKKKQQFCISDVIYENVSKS
Sequence of HePTP (P35236 whole entry, species assumed): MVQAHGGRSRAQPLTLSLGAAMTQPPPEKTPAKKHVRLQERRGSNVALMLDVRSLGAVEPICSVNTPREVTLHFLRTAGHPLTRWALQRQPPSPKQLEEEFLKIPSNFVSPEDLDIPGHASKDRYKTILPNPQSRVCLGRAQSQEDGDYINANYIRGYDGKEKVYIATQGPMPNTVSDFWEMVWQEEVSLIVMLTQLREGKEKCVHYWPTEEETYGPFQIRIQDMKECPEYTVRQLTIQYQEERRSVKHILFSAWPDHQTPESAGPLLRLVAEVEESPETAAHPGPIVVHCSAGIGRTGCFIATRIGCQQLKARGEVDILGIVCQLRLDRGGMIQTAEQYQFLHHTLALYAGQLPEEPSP
T1 sequence (P18031 1-321): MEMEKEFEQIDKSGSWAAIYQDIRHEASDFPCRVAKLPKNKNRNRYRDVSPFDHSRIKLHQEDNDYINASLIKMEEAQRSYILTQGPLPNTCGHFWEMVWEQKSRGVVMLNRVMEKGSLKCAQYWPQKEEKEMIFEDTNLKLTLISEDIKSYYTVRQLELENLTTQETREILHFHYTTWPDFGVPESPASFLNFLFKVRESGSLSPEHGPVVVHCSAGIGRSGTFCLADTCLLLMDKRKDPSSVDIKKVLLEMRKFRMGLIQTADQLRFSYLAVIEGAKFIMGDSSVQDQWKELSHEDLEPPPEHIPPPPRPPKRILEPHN
Sequence of PTPH1 (P26045 whole entry, species assumed): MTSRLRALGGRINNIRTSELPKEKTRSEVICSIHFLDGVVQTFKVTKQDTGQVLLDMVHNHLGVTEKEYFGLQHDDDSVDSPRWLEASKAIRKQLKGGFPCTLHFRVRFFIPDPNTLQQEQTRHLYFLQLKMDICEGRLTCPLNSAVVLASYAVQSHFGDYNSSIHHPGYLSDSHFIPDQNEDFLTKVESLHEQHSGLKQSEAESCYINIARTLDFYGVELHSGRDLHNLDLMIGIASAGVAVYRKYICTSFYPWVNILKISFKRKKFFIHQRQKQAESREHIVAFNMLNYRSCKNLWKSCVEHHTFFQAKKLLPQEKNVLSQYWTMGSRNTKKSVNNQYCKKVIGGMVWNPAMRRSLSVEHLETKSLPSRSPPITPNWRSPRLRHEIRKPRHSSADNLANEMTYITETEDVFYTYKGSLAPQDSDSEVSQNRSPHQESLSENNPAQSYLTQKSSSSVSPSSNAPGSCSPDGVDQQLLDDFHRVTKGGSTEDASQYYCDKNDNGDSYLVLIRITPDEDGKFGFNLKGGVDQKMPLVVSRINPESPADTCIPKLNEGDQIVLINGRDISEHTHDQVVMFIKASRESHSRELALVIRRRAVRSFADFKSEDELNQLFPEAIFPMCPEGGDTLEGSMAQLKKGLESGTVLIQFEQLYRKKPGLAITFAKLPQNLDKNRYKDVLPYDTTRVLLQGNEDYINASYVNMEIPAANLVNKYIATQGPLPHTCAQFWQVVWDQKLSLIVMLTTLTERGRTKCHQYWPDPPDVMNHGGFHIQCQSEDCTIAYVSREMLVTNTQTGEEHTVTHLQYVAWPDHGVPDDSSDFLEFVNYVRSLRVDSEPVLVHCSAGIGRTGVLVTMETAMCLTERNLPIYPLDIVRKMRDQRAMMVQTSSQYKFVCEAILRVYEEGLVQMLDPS

A word on the IC50: it is the midpoint of a concentration-inhibition curve. A lower IC50 goes with greater potency. With `CC(C)[C@H]1NC(=O)[C@H](CO)NC(=O)[C@H](CCC(N)=O)NC(=O)[C@H](Cc2ccccc2)NC(=O)[C@H](Cc2ccc3ccccc3c2)NC(=O)[C@H](CCCNC(=N)N)NC(=O)[C@H](CCCNC(=N)N)NC(=O)[C@H](CCCNC(=N)N)NC(=O)[C@H](CCCNC(=N)N)NC(=O)[C@H](Cc2c[nH]cn2)NC(=O)[C@H](Cc2ccc(C(F)(F)P(=O)(O)O)cc2)NC(=O)[C@@H]2CCCN2C1=O` [Monocyclic Inhibitor 2, cyclo(Ser-D-Val-Pro-F2Pmp-His-Arg-Arg-Arg-Arg-Nal-Phe-Gln)] (cyclo(S[dV]P[F2Pmp]HRRRR[2Nal]FQ)), the IC50 in [1] was approximately 30 nM. Also, the “Cellular uptake (confocal)” value in data set [2] is listed as “poor cellular uptake”.

As to `C[C@@H]1NC(=O)[C@H](CCCNC(=N)N)NC(=O)[C@H](Cc2ccc3ccccc3c2)NC(=O)[C@@H]2CCCCN2C(=O)[C@@H]([C@H](C)O)NC(=O)[C@H](c2ccccc2)NC(=O)[C@H](Cc2c[nH]cn2)NC(=O)c2cc3cc(c2)C(=O)NC[C@H](NC(=O)[C@@H](C)NC1=O)C(=O)N[C@@H](Cc1ccccc1)C(=O)N[C@@H](Cc1ccc2ccccc2c1)C(=O)N[C@@H](CCCNC(=N)N)C(=O)N[C@@H](CCCNC(=N)N)C(=O)N[C@@H](CCCNC(=N)N)C(=O)N[C@@H](CCCNC(=N)N)C(=O)N[C@H](C(=O)N[C@@H](CCCCN)C(N)=O)CNC3=O` [Peptide 8, bicyclo[Tm-(His-Phg-D-Thr-Pip-Nal-Arg-Ala-D-Ala)-Dap-(Phe-Nal-Arg-Arg-Arg-Arg-Dap)]-Lys] (H[Phg][dT][Pip][2Nal]RA[dA][Dap]F[2Nal]RRRR[Dap]K-NH2; linker N-9-16 via Trimesoyl; C-terminus assumed), the “Intracellular FITC fluorescence (confocal)” value in data set [3] was “intense and diffuse fluorescence throughout the entire cell”. The “Binding to CAL-PDZ domain” value in [4] is listed as “no detectable binding”. The “Ion channel activity of ΔF508-CFTR” value in data set [5] is listed as “acted synergistically”. In addition, in data set [6], the “Effect on cell growth” value was “inhibited cell growth, but to a lesser extent than inhibitor 7”. Also, the “ΔF508-CFTR at the cell surface” value in data set [7] was “much greater amounts of the protein at the cell surface”.

For orientation: inhibition means the percentage by which the read-out fell short of the control. Consider `CC(C)[C@H]1NC(=O)[C@H](CO)NC(=O)c2cc3cc(c2)C(=O)NC[C@H](NC(=O)[C@H](Cc2c[nH]cn2)NC(=O)[C@H](Cc2ccc(C(F)(F)P(=O)(O)O)cc2)NC(=O)[C@@H]2CCCN2C1=O)C(=O)N[C@@H](CCCNC(=N)N)C(=O)N[C@@H](CCCNC(=N)N)C(=O)N[C@@H](CCCNC(=N)N)C(=O)N[C@@H](CCCNC(=N)N)C(=O)N[C@@H](Cc1ccc2ccccc2c1)C(=O)N[C@@H](Cc1ccccc1)C(=O)N[C@H](C(=O)N[C@@H](CCCCN)C(N)=O)CNC3=O` [Bicyclic Inhibitor 4] (S[dV]P[F2Pmp]H[Dap]RRRR[2Nal]F[Dap]K-NH2; linker N-6-13 via Trimesoyl; C-terminus assumed), for which the inhibition at 1 µM in [8], in [9], in data set [10], in [11] and in [12] was less than 10% each time. Further, the metabolised at 24 h, 5 μM in data set [13] was approximately 10%.
